Key:
Test in all cases: relative viability (nuclei count vs DMSO), 5 days (fraction); higher = more cells survive
NCI-H1355 = test system: NCI-H1355
Outline: (§1)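 Lung cancer cell lines were seeded in 1536-well plates and dosed by pin tool the next day, with either a single drug or a fixed anchor-drug dose combined with five library-drug doses (not always all listed) spaced in √10 steps. Five days later, one step fixed the cells and stained their nuclei (final 0.05% Triton X-100, 1% formaldehyde, 1 ug/ml Hoechst), and nuclei were counted on 4× images. Relative viability is the nuclei count in treated wells divided by the count in vehicle wells, and each value is the median of duplicate plates.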

NCI-H1993 = test system: NCI-H1993
Outline: as §1

NCI-H1944 = test system: NCI-H1944
Outline: as §1

SK-LU-1 = test system: SK-LU-1
Outline: as §1

LCLC-97TM1 = test system: LCLC-97TM1
Outline: as §1

NCI-H647 = test system: NCI-H647
Outline: as §1

NCI-H441 = test system: NCI-H441
Outline: as §1

EMC-BAC-2 = test system: EMC-BAC-2
Outline: as §1

NCI-H2009 = test system: NCI-H2009
Outline: as §1

NCI-H1755 = test system: NCI-H1755
Outline: as §1

NCI-H2170 = test system: NCI-H2170
Outline: as §1

NCI-H1666 = test system: NCI-H1666
Outline: as §1

NCI-H1975 = test system: NCI-H1975
Outline: as §1

SW 1573 = test system: SW 1573
Outline: as §1

NCI-H520 = test system: NCI-H520
Outline: as §1

NCI-H2126 = test system: NCI-H2126
Outline: as §1

NCI-H460 = test system: NCI-H460
Outline: as §1

NCI-H727 = test system: NCI-H727
Outline: as §1

NCI-H2347 = test system: NCI-H2347
Outline: as §1

ABC-1 = test system: ABC-1
Outline: as §1

NCI-H1793 = test system: NCI-H1793
Outline: as §1

PC-14 = test system: PC-14
Outline: as §1

PC-3 [JPC-3] = test system: PC-3 [JPC-3]
Outline: as §1

`Cc1cnc(-c2cnc(NCCNc3ccc(C#N)cn3)nc2-c2ccc(Cl)cc2Cl)[nH]1` + CCNC(=O)c1noc(-c2cc(C(C)C)c(O)cc2O)c1-c1ccc(CN2CCOCC2)cc1 [Luminespib] (partner 0.01 µM) showed a relative viability (NCI-H1355; first compound 0.08 µM) of 0.704, a relative viability (NCI-H1355; first compound 0.253 µM) of 0.698 and a relative viability (NCI-H1355; first compound 0.8 µM) of 0.677. It also gave a relative viability (NCI-H1355; first compound 2.53 µM) of 0.744, a relative viability (NCI-H1993; first compound 0.08 µM) of 0.934 and a relative viability (NCI-H1993; first compound 0.253 µM) of 0.932. For the same molecule, the relative viability (NCI-H1993; first compound 0.8 µM) was 0.598, the relative viability (NCI-H1993; first compound 2.53 µM) was 1.27 and the relative viability (NCI-H1944; first compound 0.08 µM) was 0.831. For the same molecule, the relative viability (NCI-H1944; first compound 0.8 µM) was 0.861, the relative viability (NCI-H1944; first compound 2.53 µM) was 0.678 and the relative viability (SK-LU-1; first compound 0.08 µM) was 0.196. It also gave a relative viability (SK-LU-1; first compound 0.253 µM) of 0.238, a relative viability (SK-LU-1; first compound 0.8 µM) of 0.186 and a relative viability (SK-LU-1; first compound 2.53 µM) of 0.213. For the same molecule, the relative viability (LCLC-97TM1; first compound 0.08 µM) was 0.748, the relative viability (LCLC-97TM1; first compound 0.8 µM) was 0.959 and the relative viability (LCLC-97TM1; first compound 2.53 µM) was 0.787. For the same molecule, the relative viability (NCI-H647; first compound 0.08 µM) was 0.144, the relative viability (NCI-H647; first compound 0.253 µM) was 0.131 and the relative viability (NCI-H647; first compound 0.8 µM) was 0.135. It also gave a relative viability (NCI-H647; first compound 2.53 µM) of 0.166, a relative viability (NCI-H441; first compound 0.08 µM) of 0.409 and a relative viability (NCI-H441; first compound 0.253 µM) of 0.342. The relative viability (NCI-H441; first compound 0.8 µM) was 0.311, the relative viability (NCI-H441; first compound 2.53 µM) was 0.276 and the relative viability (EMC-BAC-2; first compound 0.08 µM) was 1.25. It also gave a relative viability (EMC-BAC-2; first compound 0.253 µM) of 1.05, a relative viability (EMC-BAC-2; first compound 0.8 µM) of 1.23 and a relative viability (EMC-BAC-2; first compound 2.53 µM) of 1.09. It also gave a relative viability (NCI-H2009; first compound 0.08 µM) of 1.03, a relative viability (NCI-H2009; first compound 0.253 µM) of 0.984 and a relative viability (NCI-H2009; first compound 0.8 µM) of 0.995. It also gave a relative viability (NCI-H2009; first compound 2.53 µM) of 0.975, a relative viability (NCI-H1755; first compound 0.08 µM) of 0.614 and a relative viability (NCI-H1755; first compound 0.253 µM) of 0.327. The relative viability (NCI-H1755; first compound 0.8 µM) was 0.59, the relative viability (NCI-H1755; first compound 2.53 µM) was 0.385 and the relative viability (NCI-H2170; first compound 0.08 µM) was 0.984. The relative viability (NCI-H2170; first compound 0.253 µM) was 0.593, the relative viability (NCI-H2170; first compound 0.8 µM) was 0.667 and the relative viability (NCI-H2170; first compound 2.53 µM) was 0.655. The relative viability (NCI-H1666; first compound 0.08 µM) was 1.04, the relative viability (NCI-H1666; first compound 0.253 µM) was 1.04 and the relative viability (NCI-H1666; first compound 0.8 µM) was 1.04. The relative viability (NCI-H1666; first compound 2.53 µM) was 1.08, the relative viability (NCI-H1975; first compound 0.08 µM) was 0.21 and the relative viability (NCI-H1975; first compound 0.253 µM) was 0.252. It also gave a relative viability (NCI-H1975; first compound 0.8 µM) of 0.191, a relative viability (NCI-H1975; first compound 2.53 µM) of 0.189 and a relative viability (SW 1573; first compound 0.08 µM) of 0.162. It also gave a relative viability (SW 1573; first compound 0.253 µM) of 0.277, a relative viability (SW 1573; first compound 0.8 µM) of 0.344 and a relative viability (SW 1573; first compound 2.53 µM) of 0.234. For the same molecule, the relative viability (NCI-H520; first compound 0.08 µM) was 0.257, the relative viability (NCI-H520; first compound 0.253 µM) was 0.203 and the relative viability (NCI-H520; first compound 0.8 µM) was 0.227. It also gave a relative viability (NCI-H520; first compound 2.53 µM) of 0.208, a relative viability (NCI-H2126; first compound 0.08 µM) of 1.11 and a relative viability (NCI-H2126; first compound 0.253 µM) of 0.861. For the same molecule, the relative viability (NCI-H2126; first compound 0.8 µM) was 0.966, the relative viability (NCI-H2126; first compound 2.53 µM) was 0.903 and the relative viability (NCI-H460; first compound 0.08 µM) was 0.0473. The relative viability (NCI-H460; first compound 0.253 µM) was 0.0403, the relative viability (NCI-H460; first compound 0.8 µM) was 0.0345 and the relative viability (NCI-H460; first compound 2.53 µM) was 0.0279. The relative viability (NCI-H727; first compound 0.08 µM) was 0.272, the relative viability (NCI-H727; first compound 0.253 µM) was 0.345 and the relative viability (NCI-H727; first compound 0.8 µM) was 0.362. It also gave a relative viability (NCI-H727; first compound 2.53 µM) of 0.337, a relative viability (NCI-H2347; first compound 0.08 µM) of 0.267 and a relative viability (NCI-H2347; first compound 0.253 µM) of 0.266. The relative viability (NCI-H2347; first compound 0.8 µM) was 0.346, the relative viability (NCI-H2347; first compound 2.53 µM) was 0.518 and the relative viability (ABC-1; first compound 0.08 µM) was 0.591. It also gave a relative viability (ABC-1; first compound 2.53 µM) of 0.82, a relative viability (NCI-H1793; first compound 0.08 µM) of 0.18 and a relative viability (NCI-H1793; first compound 0.253 µM) of 0.173. It also gave a relative viability (NCI-H1793; first compound 0.8 µM) of 0.147, a relative viability (NCI-H1793; first compound 2.53 µM) of 0.201 and a relative viability (PC-14; first compound 0.08 µM) of 0.151. It also gave a relative viability (PC-14; first compound 0.253 µM) of 0.24, a relative viability (PC-14; first compound 0.8 µM) of 0.107 and a relative viability (PC-14; first compound 2.53 µM) of 0.18. For the same molecule, the relative viability (PC-3 [JPC-3]; first compound 0.08 µM) was 0.795, the relative viability (PC-3 [JPC-3]; first compound 0.253 µM) was 0.706 and the relative viability (PC-3 [JPC-3]; first compound 0.8 µM) was 0.675. The relative viability (PC-3 [JPC-3]; first compound 2.53 µM) was 0.661.

From the supplement of paper PMC10307832
